Columns and labels:
[1] = test system: low Km cAMP phosphodiesterase (PDE) from rat adipocyte particulate fraction; assay: Generation of PDE messenger from liver membranes; extracts assayed for modulation of cAMP phosphodiesterase; format: biochemical
Protocol: These were generated from bovine liver particulate fractions by a modification of previously described methods. Particulate fraction was prepared from 100 g of bovine liver, and suspended in […] ammonium bicarbonate, pH 7.4. (Buffer A) at a final concentration of 2-4 mg protein/ml. This solution was incubated with 10 mM for 10 min at 37° C., acidified to pH 4.0 with formic acid and sedimented at 45,000 g for 20 min. An equal volume of chloroform/methanol (2:1) was added to the supernatant, and the upper phase was aspirated and methanol was evaporated.
In the tests the results of which are tabulated above, liver membranes were treated as indicated for 10 min at 37° C., centrifuged and supernatants were extracted and purified up to and including the Dowex 50WX-4 step as described earlier herein under "Experimental Procedures". Partially purified extracts were assayed for ability to modulate cAMP phosphodiesterase. Basal activity was 56.2 pmoles/mg protein^-1 -min^-1.

pyruvate dehydrogenase = assay: Production of pyruvate dehydrogenase modulating activity in crude extracts of plasma membrane derived supernatants; format: biochemical
BC3 Hl cells = assay: Incorporation of radiolabel into water soluble products (SAX HPLC Peaks I and II), insulin treated cells; format: cell-based, murine; details: 10 nM insulin
Protocol: BC3 Hl cells were cultured at 37° C. in Dubelco's Minimal Essential Medium in the presence of 20% NU serum (Collaborative Research) on collagen coated 10 mm miniwells. Cells (1×10^6 /well) were preincubated with 10 μCi A) [2,6^3 H]myoinositol or B) [1,6^3 H]glucosamine (New England Nuclear) for 20 hours in the presence of 20% Nu Serum. Insulin was added to cells in monolayer in serum free media at a final concentration of 10 nM. Reactions were terminated by removal of media and addition of 1 ml chloroform/methanol/IN HCl (200:100:1), followed by addition of 0.5 ml 10 mM formic acid. Organic and aqueous phases were separated by centrifugation at 500×g for 5 min.
The water soluble labeled products were purified by a modification of a previously described protocol for purification of cAMP phosphodiesterase (PDE) modulators. The aqueous phases were chromatographed on DEAE-Cellulose, eluted with 0.25 TEA-formate, pH 3.75. This fraction was eluted through a C-18 reversed phase sepak in the same buffer. Following lyophilization, the solution was eluted through Dowex 50WX-4 in 50 mM TEA-formate. pH 3.0. […] One ml fractions were counted. The two peaks of insulin stimulated radioactivity coeluted with similarly purified, myocyte derived PDE modulating activities. […]

[2] = test system: glycolipid precursor in BC3 Hl cells; assay: Radiolabel in glycolipid precursor (TLC), insulin treated cells; format: cell-based, murine
Protocol: (A) [^3 H]inositol and (B) [^3 H]glucosamine labeled cells were treated with or without 10 nM insulin. Following extraction and phase separation, the organic phase were dried under N2, resuspended in chloroform/methanol/H2 O (9:7:2); and spotted on oxalate impregnated Silica gel G plates. These were twice developed in chloroform/acetone/methanol/glacial acetic acid/H2 O (10:4:2:2:1). One cm regions were scraped and radioactivity determined by scintillation counting. Phosphoinositides were identified by iodine staining of standards.
Cells prelabeled with [^3 H]inositol were treated with 10 nM insulin for the designated intervals. Cells were extracted and phase separated as detailed in FIG. 7. Aqueous phases were chromatographed up to and including the SAX HPLC step (upper panel). Results reflect counts from a combination of Peaks I and II. The ratio of counts in these peaks were unchanged over the time course. The precursor residing in the organic phases was identified by the peak on TLC with an Rf =0.22, corresponding to the species depleted by PI-PLC (FIG. 10).

[3] = test system: diacylglycerol in BC3 Hl myocytes; assay: Diacylglycerol production, [^3 H]myristic acid labeled myocytes; format: cell-based, murine; details: insulin
Protocol: (§1) Myocytes were incubated for 20 hrs. in serum free DMEM with [9,10^3 H] myristic acid (New England Nuclear), complexed 1:1 to bovine serum albumin. Insulin was added to cells in fresh media for the designated intervals, and reactions were stopped by removal of media and addition of 1 ml chloroform/methanol/IN HCl (200:100:1). 0.6 ml H2 O was added and upper aqueous phases were discarded following centrifugation at 500×g for 5 minutes. The lower, organic phases were dried under N2 and resuspended in 1 ml diethyl ether followed by addition of 1 […]. The upper ether phase was aspirated and the lower phase reextracted with 1 ml diethyl ether. The combined ether phases, containing diacylglycerol, were dried under N2, resuspended in chloroform and spotted on silica gel G plates which were preactivated at 60° C. for 1 hr. Plates were twice developed in petroleum ether/diethyl ether/glacia acetic acid (70:30:2). […] Lipids were scraped and radioactivity determined in a liquid scintillation counter.
(§2) The phosphodiesteratic cleavage of a phospolipid by insulin should also be reflected by increased production of diacylglycerol, which could serve as substrate for a diglyceride kinase, producing phosphatidic acid. Myocytes were preincubated with [^3 H]myristic acid and both diacylglycerol and phosphatidic acid labeling were evaluated by thin layer chromatography (FIG. 6).

[4] = test system: phosphatidic acid in BC3 Hl myocytes; assay: Phosphatidic acid production, [^3 H]myristic acid labeled myocytes; format: cell-based, murine; details: insulin, by 5 minutes
Protocol: as §1, §2

polyphosphoinositides = details: cited from earlier work

Insulin: Monocomponent bovine insulin from Wellcome Laboratores
stimulation of PDE modulating activity / increase in production of messengers from membranes ([1]; after partial purification): 4 fold
PDE Activity ([1]; extracts of liver membranes treated 10 min at 37° C., 1.0 nM insulin, 1.0 μg/ml PI-PLC, basal 56.2): 138.0 pmol mg protein^-1 min^-1
production of pyruvate dehydrogenase modulating activity (pyruvate dehydrogenase): enhanced
incorporation of [^3 H]inositol into two peaks (I and II) (BC3 Hl cells): increased the incorporation of [^3 H]inositol into two peaks
percent of maximal effect on production of [^3 H]inositol containing products (BC3 Hl cells; 30 sec, Peaks I and II combined): Seventy
time course of [^3 H]inositol incorporation into the precursor ([2]; 10 nM insulin): biphasic
decrease in [^3 H]inositol counts in precursor ([2]; 10 nM insulin, 30 sec): 20%
increase in [^3 H]inositol radioactivity in precursor over control levels ([2]; 10 nM insulin, after 30 sec): 60%
time of hydrolysis of the putative glycolipid precursor and appearance of the products ([2]; insulin dependent): less than 1 min
increase in incorporation of [^3 H]glucosamine in precursor peak ([2]; insulin, 10 min): approximately 40%
increase in incorporation of [^3 H]inositol in precursor peak ([2]; insulin, 10 min): approximately 40%
labeling of other lipids ([2]; insulin, 10 min): no significant change
radioactivity in precursor ([2]; intact cells): rapidly diminished
maximal increase in labeled diacylglycerol over basal ([3]; by 5-10 minutes): 50%
labeled diacylglycerol level ([3]; by 2 minutes): near basal levels
increase in levels of [^3 H]myristate phosphatidic acid [4]: 2 fold
hydrolysis of polyphosphoinositides (polyphosphoinositides): does not stimulate hydrolysis of polyphosphoinositides

From patent US4906468A, “Insulin activity messengers, their antibodies, and thereof” (priority 1986, dated 1990)
